Measured values reported in US9689043B2 (CHUNGBUK NATIONAL UNIVERSITY INDUSTRY—ACADEMIC COOPERATION …, priority 2012, dated 2017).

Tested on: T24 human bladder cancer cells
Test: Cell viability assay (MTS) in transfected T24 cells incubated with drugs
Type: cell-based
Procedure: T24 human bladder cancer cells were purchased from American Type Culture Collection (ATCC, Manassas, Va.) and maintained in RPMI1640 media (Invitrogen, Carlsbad, Calif.) with 10% FBS and 1% Penicillin/Streptomycin at 37° C. under 5% CO2. T24 cells at ˜80% confluence were transiently transfected with expressing constructs or small interfering RNAs (siRNAs) of EGFR and S100A9 using Lipofactamine 2000. For S100A9 overexpression, pCMV-Sports6-S100A9 and vector constructs were kindly provided by Dr. A. Moon (Duksung University, Korea). As transfection controls, empty (Ctrl) or NON-TARGET control siRNAs (siCtrl) were used.
Cell viability was determined using MTS reagents as instructed by the manufacturer's protocol (Promega Corporation, Madison, Wis.).

COc1cc2ncnc(Nc3ccc(F)c(Cl)c3)c2cc1OCCCN1CCOCC1 [Iressa, gefitinib]
Cell viability (T24 cells, EGFR inhibition with Iressa (FIG. 6, line 2)): significantly reduced viability
Chemo-sensitivity to cisplatin (T24 cells, EGFR inhibition with Iressa plus cisplatin (FIG. 6, line 2)): enhanced chemo-sensitivity to cisplatin
Chemo-sensitivity to cisplatin (T24 cells, Iressa combined with S100A9 silencing by siRNA, plus cisplatin (FIG. 6, line 4)): synergistically enhanced chemo-sensitivity

N.N.[Cl][Pt][Cl] [cisplatin]
Cisplatin-induced apoptosis / viability (EGFR overexpressing T24 cells, 10 μM cisplatin, serum free medium): did not show significant apoptosis until 24 h-treatment
